As a reminder, the MIC is the lowest concentration that inhibits growth of the organism.

Series [1] deals with Streptococcus spp. spontaneous mutants. In words: organism not typed. The class given is cell-based. On the procedure: (§1) Select isolates were subcultured onto agar containing drug at the selection concentration, were identified by MALDI, and were frozen for broth microdilution MIC testing as described below.
(§2) To determine whether colonies growing on drug selection plates had elevated MIC values to the selecting antibiotic, susceptibility testing by broth microdilution was conducted on isolated mutants following methodology recommended by CLSI (1), (2), and (3) “Performance Standards for Antimicrobial Susceptibility Testing; Twenty-Eighth Informational Supplement.,” CLSI document M100-S28, 2018.
(§3) All wells in columns 2 through 12 of a standard 96-well microdilution plate (Costar 3795) were filled with 150 μL of the appropriate diluent. Then, 300 μL of the test agents were added to the wells of column 1 of the plates at […] the highest final concentration to be tested. Serial two-fold dilutions were made across the rows through column 11 using the Biomek 2000. The wells of column 12 contained no drug and served as the growth control wells. This plate served as the “mother plate” from which selected MIC assay plates or “daughter plates” were made.
2 μL of drug solution from each well of a mother plate was added to each corresponding well of the daughter plate in a single step. A standardized inoculum of each aerobic test organism was prepared per CLSI methods to equal a 0.5 McFarland standard, followed by a dilution of 1:20 in MHB II. The plates were then inoculated with 10 μL of the diluted inoculum using the Biomek 2000 from low to high drug concentration, resulting in a final concentration of approximately 5×10^5 CFU/mL. An un-inoculated plate was incubated for the purpose of assessing solubility of the drug in the test media.
The plates for the aerobic tests were stacked 3-4 high, covered with a sterile lid on the top plate, and incubated aerobically at 35° C. for 18-20 hr. The MIC was recorded as the lowest concentration of drug that inhibited visible growth of the organism.

For series [2] the test system is unchanged. The conditions noted are these: S. pneumoniae ATCC 49619; CLSI QC range shown in parentheses; cited from earlier work.
For series [3], the system named is Bacteroides spp. spontaneous mutants. Briefly: Broth microdilution MIC of spontaneous mutants. The series is classed as cell-based. On the procedure: as §1, §2, §3
Daughter plates for anaerobic organisms were transferred to a Bactron II anaerobic chamber (Sheldon Manufacturing Inc., Cornelius, Oreg.) to reduce for 1 hour prior to inoculation. The inoculum for each organism was prepared in the anaerobic chamber and dispensed into sterile disposable reservoirs. Inoculation was completed using a multichannel pipette to transfer 10 μL of the inoculum into each well of the daughter plate. This yielded a final cell concentration in the daughter plates of approximately 1×10^6 CFU/mL.

For series [4] the following is noted: in vivo, po, 10 mg/kg; cited from earlier work.
The subject of series [5] is SIBO Bacteria. As to conditions: cited from earlier work.
Series [6] concerns B. fragilis ATCC 25285. In words: Broth microdilution MIC (time-kill study). The conditions noted are these: Bacteroides fragilis, ATCC25285; B. fragilis MMX 123 ATCC 25285; read-out: MIC. The class given is cell-based, Bacteroides fragilis.
For series [7], the system named is E. coli ATCC 25922. Briefly: Broth microdilution MIC (time-kill study). The class given is cell-based, Escherichia coli. The conditions noted are these: Escherichia coli, ATCC25922; E. coli ATCC 25922; read-out: MIC.
Series [8] has as its system S. agalactiae ATCC 13813. In words: Broth microdilution MIC (time-kill study). The class given is cell-based, Streptococcus agalactiae. The conditions noted are these: Streptococcus agalactiae, ATCC13813. Background: Broth dilution looks for growth in wells or tubes with falling amounts of substance.
The test system of series [9] is B. ovatus MMX 3503. In words: Broth microdilution MIC (time-kill study). The class given is cell-based, Bacteroides ovatus. As to conditions: Bacteroides ovatus, MMX3503; B. ovatus MMX 3504 (so in the source); read-out: MIC.
Series [10] concerns Clostridium spp. Briefly: Agar dilution MIC, 10 clinical isolates. The class given is cell-based. In general terms: In agar dilution the substance is mixed into plates at graded concentrations.
Series [11] relates to S. pneumoniae ATCC 49619. In words: Broth microdilution MIC (time-kill study). The series is classed as cell-based, Streptococcus pneumoniae. The conditions noted are these: Streptococcus pneumoniae, ATCC49619; S. pneumoniae ATCC 49619; read-out: MIC.
Series [12] relates to E. coli MMX 1312. Briefly: Broth microdilution MIC (time-kill study). The class given is cell-based, Escherichia coli. The conditions noted are these: Escherichia coli, MMX1312; E. coli MMX 1312; read-out: MIC.
Series [13] relates to E. coli ATCC 35218 (TEM-1 β-lactamase producer). In words: Broth microdilution MIC (time-kill study). The series is classed as cell-based, Escherichia coli. As to conditions: Escherichia coli, ATCC35218.
The test system of series [14] is S. pyogenes ATCC 49399. Briefly: Broth microdilution MIC (time-kill study). As to conditions: Streptococcus pyogenes, ATCC49399; S. pyogenes ATCC 49399; read-out: MIC. The series is classed as cell-based, Streptococcus pyogenes.
Series [15] has as its system B. vulgatus ATCC 8482. Briefly: Broth microdilution MIC (time-kill study). The class given is cell-based, Bacteroides vulgatus. As to conditions: Phocaeicola vulgatus, ATCC8482; B. vulgatus ATCC 8482; read-out: MIC.
Series [16] concerns B. fragilis ATCC 25285. As to conditions: B. fragilis MMX 123 ATCC 25285; cited from earlier work.

The structures appear in SMILES notation. ≈ marks a conversion by molar mass, not a printed value.

Consider `CCC[C@@H]1C[C@@H](C(=O)N[C@@H]([C@H]2O[C@H](SC)[C@H](O)[C@@H](O)[C@H]2O)[C@H](C)Cl)N(C)C1` [CLIN], for which the MIC in series [1] (S. agaloctiae ATCC 13813, selected on rifaximin 4X MIC, Colony A) turned out to be 0.03 µg/mL (≈ 0.0706 µM); in series [1] (S. agaloctiae ATCC 13813, selected on rifaximin 4X MIC, Colony B), 0.03 µg/mL (≈ 0.0706 µM); in series [1] (S. agaloctiae ATCC 13813, selected on rifaximin 8X MIC, Colony A), 0.03 µg/mL (≈ 0.0706 µM); in [1] (S. agaloctiae ATCC 13813, selected on rifaximin 8X MIC, Colony B), 0.03 µg/mL (≈ 0.0706 µM); in series [1] (S. agaloctiae ATCC 13813 Parent), 0.015 µg/mL (≈ 0.0353 µM); in series [1] (S. pneumoniae ATCC 49619, selected on rifaximin 4X MIC, Colony A), 0.03 µg/mL (≈ 0.0706 µM). The MIC stood at 0.03 µg/mL (≈ 0.0706 µM) in [1] (S. pneumoniae ATCC 49619, selected on rifaximin 4X MIC, Colony B); 0.03 µg/mL (≈ 0.0706 µM) in series [1] (S. pneumoniae ATCC 49619, selected on rifaximin 8X MIC, Colony A); 0.03 µg/mL (≈ 0.0706 µM) in [1] (S. pneumoniae ATCC 49619, selected on rifaximin 8X MIC, Colony B); 0.06 µg/mL (≈ 0.141 µM) in series [1] (S. pneumoniae ATCC 49619 Parent); 0.03 µg/mL (≈ 0.0706 µM) in series [1] (S. pyogenes ATCC 49399, selected on rifaximin 4X MIC, Colony A); 0.03 µg/mL (≈ 0.0706 µM) in [1] (S. pyogenes ATCC 49399, selected on rifaximin 4X MIC, Colony B). The MIC in series [1] (S. pyogenes ATCC 49399, selected on rifaximin 8X MIC, Colony A) came to 0.03 µg/mL (≈ 0.0706 µM); in series [1] (S. pyogenes ATCC 49399, selected on rifaximin 8X MIC, Colony B), 0.03 µg/mL (≈ 0.0706 µM); in series [1] (S. pyogenes ATCC 49399 Parent), 0.03 µg/mL (≈ 0.0706 µM); in series [3] (B. fragilis ATCC 25285, selected on rifaximin 4X MIC, Colony A) it was 0.5 µg/mL; in series [3] (B. fragilis ATCC 25285, selected on rifaximin 4X MIC, Colony B) it was 0.5 µg/mL; in [3] (B. fragilis ATCC 25285, selected on rifaximin 8X MIC, Colony A) it was 0.5 µg/mL. For the same compound, the MIC amounted to 0.5 µg/mL in [3] (B. fragilis ATCC 25285, selected on rifaximin 8X MIC, Colony B); 0.25 µg/mL in series [3] (B. fragilis ATCC 25285 Parent); 1 µg/mL in series [3] (B. ovatus MMX 3503, selected on rifaximin 4X MIC, Colony A); 1 µg/mL in series [3] (B. ovatus MMX 3503, selected on rifaximin 4X MIC, Colony B); 0.5 µg/mL in [3] (B. ovatus MMX 3503, selected on rifaximin 8X MIC, Colony A); 1 µg/mL in series [3] (B. ovatus MMX 3503, selected on rifaximin 8X MIC, Colony B). The MIC in series [3] (B. ovatus MMX 3503 Parent) worked out at 0.5 µg/mL; in [3] (B. vulgatus ATCC 8482, selected on ceftriaxone 4X MIC, Colony A) it was 0.25 µg/mL; in series [3] (B. vulgatus ATCC 8482, selected on ceftriaxone 4X MIC, Colony B), 0.25 µg/mL; in [3] (B. vulgatus ATCC 8482, selected on rifaximin 4X MIC, Colony A) it was 0.25 µg/mL; in series [3] (B. vulgatus ATCC 8482, selected on rifaximin 4X MIC, Colony B), 0.12 µg/mL; in series [3] (B. vulgatus ATCC 8482, selected on rifaximin 8X MIC, Colony A) it was 0.12 µg/mL. Moreover, the MIC in series [3] (B. vulgatus ATCC 8482, selected on rifaximin 8X MIC, Colony B) amounted to 0.25 µg/mL; in series [3] (B. vulgatus ATCC 8482 Parent (Table 50)) it was 0.25 µg/mL; in series [3] (B. vulgatus ATCC 8482 Parent (Table 54)) it was 0.25 µg/mL. Also, the “MIC, CLSI QC range” value in [2] is “(0.03-0.12) μg/mL”.
Consider `C[C@@H](O)[C@H]1C(=O)N2C(C(=O)O)=C(S[C@@H]3CN[C@H](C(=O)Nc4cccc(C(=O)O)c4)C3)[C@H](C)[C@H]12` [ertapenem], for which the “Rat oral exposure (Dose)” value in [4] was 0.39 μM*h at 10. For the same compound, the “activity against SIBO organisms” value in series [5] was “active against SIBO organisms”.
`Cc1ncc([N+](=O)[O-])n1CCO` [metronidazole, Metronidazole]: the MIC is 0.5 µg/mL (≈ 2.92 µM) in series [6]; over 32 µg/mL in [7]; over 32 µg/mL in series [8]; 0.5 µg/mL (≈ 2.92 µM) in series [9]; over 32 µg/mL in [11]; over 32 µg/mL in series [12]. Further, the figures for the MIC in [13], in [14] and in [15] were over 32 µg/mL, over 32 µg/mL and 0.5 µg/mL (≈ 2.92 µM), respectively. Further, the “relative activity among drugs tested” value in series [10] is “meropenem and metronidazole had similar activity”. In addition, the “CLSI QC range (MIC)” value in series [16] is on record as “(0.25-2) μg/mL”.

Source of the values: patent US20210386367A1, “DEVICES AND SYSTEMS FOR GASTROINTESTINAL MICROBIOME DETECTION AND MANIPULATION” (Progenity, Inc., priority 2018, published 2021).
